Assay results reported in US7211572B2 (Japan Tobacco Inc., priority 2003, dated 2007).
Counter-ions that a name gives are not always drawn.

Target: T1, HIV integrase (Human immunodeficiency virus type 1 group M subtype B, UniProt P12497, F1332H)
T1 construct: HIV integrase full length gene; made in house; host or cells: Escherichia coli BL21(DE3), plasmid pET21a-INH
Assay: Determination of enzyme (HIV integrase) inhibitory activity
Type: biochemical
Settings: recombinant HIV integrase (F185H), strand transfer ELISA, absorbance at 450 nm
Summary of the method: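 Full-length integrase with F185H, expressed in E. coli and purified, was reacted for 60 min at 37 °C with compound and biotinylated donor DNA bound to streptavidin plates. Target DNA was added for 10 min, then anti-digoxigenin-peroxidase detection at A450; IC50 from % inhibition versus enzyme-free blank.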

SMILES | IC50 [nM]
Cn1ncnc1-c1cn2ccn(Cc3cccc(Cl)c3)c(=O)c2c(O)c1=O [Example 232, 2-(3-chlorobenzyl)-9-hydroxy-7-(2-methyl-2H-1,2,4-triazol-3-yl)-2H-pyrido[1,2-a]pyrazine-1,8-dione hydrochloride] | < 10
O=C(NCCF)c1cn2ccn(Cc3cccc(Cl)c3)c(=O)c2c(O)c1=O [Example 233, N-(2-fluoroethyl)-2-(3-chlorobenzyl)-9-hydroxy-1,8-dioxo-1,8-dihydro-2H-pyrido[1,2-a]pyrazine-7-carboxamide] | < 10
CN(Cc1ccccc1)C(=O)c1cn2ccn(Cc3cccc(Cl)c3)c(=O)c2c(O)c1=O [Example 234, N-benzyl-N-methyl-2-(3-chlorobenzyl)-9-hydroxy-1,8-dioxo-1,8-dihydro-2H-pyrido[1,2-a]pyrazine-7-carboxamide] | < 10
O=c1c(Sc2ccccc2)cn2ccn(Cc3cccc(Cl)c3)c(=O)c2c1O [Example 235, 2-(3-chlorobenzyl)-9-hydroxy-7-phenylsulfanyl-2H-pyrido [1,2-a]pyrazine-1,8-dione] | 10 to 100
O=c1c([S+]([O-])c2ccccc2)cn2ccn(Cc3cccc(Cl)c3)c(=O)c2c1O (stereo not drawn) [Example 236, 7-benzenesulfinyl-2-(3-chlorobenzyl)-9-hydroxy-2H-pyrido[1,2-a]pyrazine-1,8-dione] | 10 to 100
O=c1c(S(=O)(=O)c2ccccc2)cn2ccn(Cc3cccc(Cl)c3)c(=O)c2c1O [Example 237, 7-benzenesulfonyl-2-(3-chlorobenzyl)-9-hydroxy-2H-pyrido [1,2-a]pyrazine-1,8-dione] | 10 to 100
CC(C)(C)C(=O)c1cn2c(c(O)c1=O)C(=O)N(Cc1ccc(Cl)c(Cl)c1)CC2 [Example 238, 2-(3,4-dichlorobenzyl)-7-(2,2-dimethylpropionyl)-9-hydroxy-3,4-dihydro-2H-pyrido[1,2-a]pyrazine-1,8-dione] | < 10
CC(C)C(=O)Nc1cn2ccn(Cc3cccc(Cl)c3)c(=O)c2c(O)c1=O [Example 239, N-[2-(3-chlorobenzyl)-9-hydroxy-1,8-dioxo-1,8-dihydro-2H-pyrido[1,2-a]pyrazin-7-yl]isobutyramide] | < 10
CC(=O)Nc1cn2ccn(Cc3ccc(F)c(Cl)c3)c(=O)c2c(O)c1=O [Example 240, N-[2-(3-chloro-4-fluorobenzyl)-9-hydroxy-1,8-dioxo-1,8-dihydro-2H-pyrido[1,2-a]pyrazin-7-yl]acetamide] | < 10
CC(C)(C)C(=O)c1cn2c(CO)cn(Cc3ccc(F)c(Cl)c3)c(=O)c2c(O)c1=O [Example 241, 2-(3-chloro-4-fluorobenzyl)-7-(2,2-dimethylpropionyl)-9-hydroxy-4-hydroxymethyl-2H-pyrido[1,2-a]pyrazine-1,8-dione hydrochloride] | < 10
CCC(=O)Nc1cn2ccn(Cc3cccc(Cl)c3)c(=O)c2c(O)c1=O [Example 242, N-[2-(3-chlorobenzyl)-9-hydroxy-1,8-dioxo-1,8-dihydro-2H-pyrido[1,2-a]pyrazin-7-yl]propionamide] | < 10
O=C(Cc1ccccc1)Nc1cn2ccn(Cc3cccc(Cl)c3)c(=O)c2c(O)c1=O [Example 243, N-[2-(3-chlorobenzyl)-9-hydroxy-1,8-dioxo-1,8-dihydro-2H-pyrido[1,2-a]pyrazin-7-yl]-2-phenylacetamide] | < 10
CC(=O)c1cn2ccn(Cc3ccc(F)c(Cl)c3)c(=O)c2c(O)c1=O [Example 244, 7-acetyl-2-(3-chloro-4-fluorobenzyl)-9-hydroxy-2H-pyrido[1,2-a]pyrazine-1,8-dione hydrochloride] | < 10
CSc1cn2ccn(Cc3cccc(Cl)c3)c(=O)c2c(O)c1=O [Example 245, 2-(3-chlorobenzyl)-9-hydroxy-7-methylsulfanyl-2H-pyrido[1,2-a]pyrazine-1,8-dione] | 10 to 100
CS(=O)(=O)c1cn2ccn(Cc3cccc(Cl)c3)c(=O)c2c(O)c1=O [Example 246, 2-(3-chlorobenzyl)-9-hydroxy-7-methanesulfonyl-2H-pyrido[1,2-a]pyrazine-1,8-dione] | 10 to 100
C[S+]([O-])c1cn2ccn(Cc3cccc(Cl)c3)c(=O)c2c(O)c1=O (stereo not drawn) [Example 247, 2-(3-chlorobenzyl)-9-hydroxy-7-methanesulfinyl-2H-pyrido[1,2-a]pyrazine-1,8-dione] | 10 to 100
Cc1cnc(-c2cn3c(c(O)c2=O)C(=O)N(Cc2cccc(Cl)c2)CC3)s1 [Example 248, 2-(3-chlorobenzyl)-9-hydroxy-7-(5-methylthiazol-2-yl)-3,4-dihydro-2H-pyrido[1,2-a]pyrazine-1,8-dione] | < 10
O=C1c2c(O)c(=O)c(-c3nccs3)cn2CCN1Cc1ccc(Cl)c(Cl)c1 [Example 249, 2-(3,4-dichlorobenzyl)-9-hydroxy-7-(thiazol-2-yl)-3,4-dihydro-2H-pyrido[1,2-a]pyrazine-1,8-dione] | < 10
O=c1ccn2ccn(Cc3ccc(F)cc3)c(=O)c2c1O [Example 250, 2-(4-fluorobenzyl)-9-hydroxy-2H-pyrido[1,2-a]pyrazine-1,8-dione hydrochloride] | 10 to 100
CC(C)(C)C(=O)c1cn2ccn(Cc3ccc(F)cc3)c(=O)c2c(O)c1=O [Example 251, 7-(2,2-dimethylpropionyl)-2-(4-fluorobenzyl)-9-hydroxy-2H-pyrido[1,2-a]pyrazine-1,8-dione hydrochloride] | < 10
O=c1c(-c2nccs2)cn2ccn(Cc3ccc(F)cc3)c(=O)c2c1O [Example 252, 2-(4-fluorobenzyl)-9-hydroxy-7-(thiazol-2-yl)-2H-pyrido[1,2-a]pyrazine-1,8-dione hydrochloride] | < 10
CNC(=O)c1cn2ccn(Cc3ccc(F)cc3)c(=O)c2c(O)c1=O [Example 253, N-methyl-2-(4-fluorobenzyl)-9-hydroxy-1,8-dioxo-1,8-dihydro-2H-pyrido[1,2-a]pyrazine-7-carboxamide] | < 10
CC(C)(C)C(=O)c1cn2ccn(CCCc3c(F)cccc3Cl)c(=O)c2c(O)c1=O [Example 254, 2-[3-(2-chloro-6-fluorophenyl)propyl]-7-(2,2-dimethylpropionyl)-9-hydroxy-2H-pyrido[1,2-a]pyrazine-1,8-dione hydrochloride] | < 10
Cc1csc(-c2cn3c(c(O)c2=O)C(=O)N(Cc2cccc(Cl)c2)CC3)n1 [Example 255, 2-(3-chlorobenzyl)-9-hydroxy-7-(4-methylthiazol-2-yl)-3,4-dihydro-2H-pyrido[1,2-a]pyrazine-1,8-dione] | < 10
CCCC(=O)Nc1cn2ccn(Cc3cccc(Cl)c3)c(=O)c2c(O)c1=O [Example 256, N-[2-(3-chlorobenzyl)-9-hydroxy-1,8-dioxo-1,8-dihydro-2H-pyrido[1,2-a]pyrazin-7-yl]butyramide] | < 10
O=C(Nc1cn2ccn(Cc3cccc(Cl)c3)c(=O)c2c(O)c1=O)c1ccccc1 [Example 257, N-[2-(3-chlorobenzyl)-9-hydroxy-1,8-dioxo-1,8-dihydro-2H-pyrido[1,2-a]pyrazin-7-yl]benzamide] | < 10
O=C(CCc1ccccc1)Nc1cn2ccn(Cc3cccc(Cl)c3)c(=O)c2c(O)c1=O [Example 258, N-[2-(3-chlorobenzyl)-9-hydroxy-1,8-dioxo-1,8-dihydro-2H-pyrido[1,2-a]pyrazin-7-yl]-3-phenylpropionamide] | < 10
